# “Also recorded” adds a separate entry of the source.
# Tested on: pig liver chromatin
# Assay: Magnetometer detection of substrate metabolism by pig liver chromatin
# Conditions: NADPH-dependent
row,SMILES,Metabolized by pig liver chromatin
1,Cc1c(N(C)C)c(=O)n(-c2ccccc2)n1C [aminopyrine],−
2,CN(C)CCC=C1c2ccccc2CCc2ccccc21 [amitryptyline],+
3,Nc1ccccc1 [aniline],−
4,C[C@]12CCC(=O)C=C1CC[C@@H]1[C@@H]2[C@@H](O)C[C@@]2(C)[C@H]1CC[C@]2(O)C(=O)CO [cortisol],−
5,"C[C@]12CC[C@@H]3c4ccc(O)cc4CC[C@H]3[C@@H]1CC[C@@H]2O [estridiol, β-estradiol]",−
6,NCCCCN [putrescine],+
7,C[C@]12CC[C@H]3[C@@H](CCC4=CC(=O)CC[C@@]43C)[C@@H]1CC[C@@H]2O [testosterone],+

# Same assay, conditions: Non-NADPH-dependent
row,SMILES,Metabolized by pig liver chromatin
1,NCCc1c[nH]cn1 [histamine],+
2,N[C@@H](Cc1c[nH]cn1)C(=O)O [histidine],++
3,N[C@H](CO)Cc1c[nH]cn1 [histidinol],+

# Same assay, conditions: chromatin from pig liver nuclei 1 mg protein/ml, without NADPH; listed as HD
row,SMILES,"Magnetometer chart response to substrate, CHROM"
1,N[C@@H](Cc1c[nH]cn1)C(=O)O [histidine],PBT (50) B 10 CHROM Response to HD; also recorded: PGT 100 CHROM (700) B. Response to HD

# Same assay, conditions: chromatin from pig liver nuclei, NADPH present
row,SMILES,"Magnetometer chart response to substrate, CHROM in presence of NADPH"
1,C[C@]12CC[C@H]3[C@@H](CCC4=CC(=O)CC[C@@]43C)[C@@H]1CC[C@@H]2O [testosterone],CHROM. Response to TEST in presence of NADPH

# Tested on: pig liver nuclei
# Assay: Magnetometer detection of substrate response in pig liver nuclei
# Type: in vitro ADME
# Conditions: pig liver nuclei 1 mg protein/ml, without NADPH
row,SMILES,"Magnetometer chart response to substrate, PLN"
1,N[C@@H](Cc1c[nH]cn1)C(=O)O [histidine],PLN. Response to HD.
2,NCCCCN [putrescine],PLN. No response to PUTR until NADPH added.

# Tested on: rat liver Microsomes
# Assay: Magnetometer detection of substrate metabolism by rat liver microsomes
# Conditions: NADPH-dependent
row,SMILES,Metabolized by rat liver Microsomes
1,Cc1c(N(C)C)c(=O)n(-c2ccccc2)n1C [aminopyrine],+
2,CN(C)CCC=C1c2ccccc2CCc2ccccc21 [amitryptyline],+
3,Nc1ccccc1 [aniline],+
4,C[C@]12CCC(=O)C=C1CC[C@@H]1[C@@H]2[C@@H](O)C[C@@]2(C)[C@H]1CC[C@]2(O)C(=O)CO [cortisol],+
5,CNCCC(Oc1ccc(C(F)(F)F)cc1)c1ccccc1 (stereo not shown) [fluoxetine],+
6,"CC(=O)[C@H]1CC[C@H]2[C@@H]3CCC4=CC(=O)CC[C@]4(C)[C@H]3CC[C@]12C [progresterone, progesterone]",+
7,NCCCCN [putrescine],+
8,C[C@]12CC[C@H]3[C@@H](CCC4=CC(=O)CC[C@@]43C)[C@@H]1CC[C@@H]2O [testosterone],−

# Same assay, conditions: Non-NADPH-dependent
row,SMILES,Metabolized by rat liver Microsomes
1,Nc1ncnc2c1ncn2[C@@H]1O[C@H](CO)[C@@H](O)[C@H]1O [adenosine],+
2,NCCc1c[nH]cn1 [histamine],+
3,N[C@@H](Cc1c[nH]cn1)C(=O)O [histidine],+
4,N[C@H](CO)Cc1c[nH]cn1 [histidinol],+

# Same assay, conditions: rat liver microsomes 1 mg protein/ml, NADPH present
row,SMILES,"Magnetometer chart response to substrate, RLM + NADPH"
1,N[C@@H](Cc1c[nH]cn1)C(=O)O [histidine],"RLM + NADPH. Two response to HD, short latency in both."
2,NCCCCN [putrescine],Increased slope

# Same assay, conditions: rat liver microsomes 1 mg protein/ml, NADPH present; listed as PU
row,SMILES,"Magnetometer chart response to substrate, RLM + NADPH"
1,NCCCCN [putrescine],PU (10) NADPH (10) response seen at end of record; also recorded: Response to PU

# Same assay, conditions: rat liver microsomes 1 mg protein/ml, no NADPH stated
row,SMILES,"Magnetometer chart response to substrate, RLM"
1,Nc1ncnc2c1ncn2[C@@H]1O[C@H](CO)[C@@H](O)[C@H]1O [adenosine],No further change in slope
2,N[C@@H](Cc1c[nH]cn1)C(=O)O [histidine],Enhanced slope
